Laboratory results taken from the supplement of paper PMC7661543.
± gives the standard deviation of the averaged measurements.

Assays:
Assay in all cases: relative cell number vs DMSO control (72 h) (% of DMSO); higher = less growth inhibition (more cells)
Conditions in all cases: sgRNA knockout: sgNT
[1] = system: HCC-38
Procedure: (§1)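 QMAP-Seq: a pool of 5 breast cancer cell lines (ZR-75-1, SKBR3, HCC-38, MDA-MB-231, BT-20), each carrying 12 doxycycline-inducible Cas9 sgRNA perturbations (11 knockouts plus non-targeting sgNT), was treated with compounds for 72 h at four 10-fold doses (10 nM-10 uM or 1 nM-1 uM range). Barcodes were amplified and sequenced, and cell number was interpolated from 293T spike-in standard curves. The result is expressed as % of the median of DMSO wells. Two biological replicates.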

[2] = system: MDA-MB-231
Procedure: as §1

[3] = system: BT-20
Procedure: as §1

[4] = system: ZR-75-1
Procedure: as §1

[5] = system: SKBR3
Procedure: as §1

CN(C)/N=N/c1[nH]cnc1C(N)=O [Dacarbazine]
relative cell number ([1]; 10 nM): 96.4 ± 9.5 | relative cell number ([1]; 100 nM): 85 ± 22 | relative cell number ([1]; 1000 nM): 90.4 ± 13 | relative cell number ([1]; 10000 nM): 96.1 ± 20 | relative cell number ([2]; 10 nM): 95 ± 23 | relative cell number ([2]; 100 nM): 132 ± 22 | relative cell number ([2]; 1000 nM): 125 ± 38 | relative cell number ([2]; 10000 nM): 69.2 ± 6.3 | relative cell number ([3]; 10 nM): 73.1 ± 11 | relative cell number ([3]; 100 nM): 96.3 ± 16 | relative cell number ([3]; 1000 nM): 108 ± 13 | relative cell number ([3]; 10000 nM): 88.5 ± 26 | relative cell number ([4]; 10 nM): 89.3 ± 32 | relative cell number ([4]; 100 nM): 87.7 ± 18 | relative cell number ([4]; 1000 nM): 93.4 ± 33 | relative cell number ([4]; 10000 nM): 94.9 ± 2.4 | relative cell number ([5]; 10 nM): 89.1 ± 21 | relative cell number ([5]; 100 nM): 91.8 ± 8.6 | relative cell number ([5]; 1000 nM): 86.9 ± 3.4 | relative cell number ([5]; 10000 nM): 106 ± 30

Cc1nc(Nc2ncc(C(=O)Nc3c(C)cccc3Cl)s2)cc(N2CCN(CCO)CC2)n1 [Dasatinib]
relative cell number ([1]; 10 nM): 96.2 ± 12 | relative cell number ([1]; 100 nM): 66.2 ± 9.8 | relative cell number ([1]; 1000 nM): 65.7 ± 4.4 | relative cell number ([1]; 10000 nM): 32.9 ± 2.9 | relative cell number ([2]; 10 nM): 100 ± 5.3 | relative cell number ([2]; 100 nM): 53.1 ± 6.1 | relative cell number ([2]; 1000 nM): 56 ± 14 | relative cell number ([2]; 10000 nM): 13.8 ± 4.3 | relative cell number ([3]; 10 nM): 72.1 ± 28 | relative cell number ([3]; 100 nM): 82.2 ± 4.3 | relative cell number ([3]; 1000 nM): 105 ± 1.7 | relative cell number ([3]; 10000 nM): 63.9 ± 7.7 | relative cell number ([4]; 10 nM): 107 ± 27 | relative cell number ([4]; 100 nM): 75.8 ± 34 | relative cell number ([4]; 1000 nM): 65.4 ± 11 | relative cell number ([4]; 10000 nM): 35.9 ± 0.91 | relative cell number ([5]; 10 nM): 53.8 ± 31 | relative cell number ([5]; 100 nM): 96.7 ± 42 | relative cell number ([5]; 1000 nM): 107 ± 28 | relative cell number ([5]; 10000 nM): 41.6 ± 1.3

Nc1ncn([C@H]2C[C@H](O)[C@@H](CO)O2)c(=O)n1 [Decitabine]
relative cell number ([1]; 10 nM): 98.2 ± 27 | relative cell number ([1]; 100 nM): 80.8 ± 14 | relative cell number ([1]; 1000 nM): 49.3 ± 4.6 | relative cell number ([1]; 10000 nM): 35.6 ± 3.4 | relative cell number ([2]; 10 nM): 83 ± 13 | relative cell number ([2]; 100 nM): 78.2 ± 10 | relative cell number ([2]; 1000 nM): 31.2 ± 4.4 | relative cell number ([2]; 10000 nM): 19.9 ± 0.36 | relative cell number ([3]; 10 nM): 92.6 ± 11 | relative cell number ([3]; 100 nM): 83 ± 5.8 | relative cell number ([3]; 1000 nM): 75.7 ± 17 | relative cell number ([3]; 10000 nM): 50.5 ± 15 | relative cell number ([4]; 10 nM): 119 ± 23 | relative cell number ([4]; 100 nM): 54.9 ± 30 | relative cell number ([4]; 1000 nM): 51.2 ± 7.2 | relative cell number ([4]; 10000 nM): 40.4 ± 17 | relative cell number ([5]; 10 nM): 104 ± 76 | relative cell number ([5]; 100 nM): 68.3 ± 37 | relative cell number ([5]; 1000 nM): 55.4 ± 22 | relative cell number ([5]; 10000 nM): 45.9 ± 16

COC(=O)/C=C/C(=O)OC [DimethylFumarate]
relative cell number ([1]; 10 nM): 104 ± 17 | relative cell number ([1]; 100 nM): 81.6 ± 2.4 | relative cell number ([1]; 1000 nM): 91.4 ± 7.1 | relative cell number ([1]; 10000 nM): 91.3 ± 20 | relative cell number ([2]; 10 nM): 107 ± 36 | relative cell number ([2]; 100 nM): 88.3 ± 9.9 | relative cell number ([2]; 1000 nM): 91.2 ± 7.2 | relative cell number ([2]; 10000 nM): 98.8 ± 16 | relative cell number ([3]; 10 nM): 105 ± 18 | relative cell number ([3]; 100 nM): 98.2 ± 2.9 | relative cell number ([3]; 1000 nM): 86.1 ± 15 | relative cell number ([3]; 10000 nM): 84.8 ± 1.5 | relative cell number ([4]; 10 nM): 95.9 ± 36 | relative cell number ([4]; 100 nM): 120 ± 19 | relative cell number ([4]; 1000 nM): 97.7 ± 76 | relative cell number ([4]; 10000 nM): 81.2 ± 38 | relative cell number ([5]; 10 nM): 112 ± 23 | relative cell number ([5]; 100 nM): 98.3 ± 3 | relative cell number ([5]; 1000 nM): 86.2 ± 8.6 | relative cell number ([5]; 10000 nM): 78.2 ± 16

COc1cccc2c1C(=O)c1c(O)c3c(c(O)c1C2=O)C[C@@](O)(C(=O)CO)C[C@@H]3O[C@H]1C[C@H](N)[C@H](O)[C@H](C)O1 [Doxorubicin]
relative cell number ([1]; 10 nM): 74 ± 5.4 | relative cell number ([1]; 100 nM): 38.3 ± 2.5 | relative cell number ([1]; 1000 nM): 17.2 ± 3.1 | relative cell number ([1]; 10000 nM): 10.8 ± 3.9 | relative cell number ([2]; 10 nM): 75.6 ± 18 | relative cell number ([2]; 100 nM): 19.3 ± 8.7 | relative cell number ([2]; 1000 nM): 20.3 ± 0.47 | relative cell number ([2]; 10000 nM): 7.68 ± 2.6 | relative cell number ([3]; 10 nM): 83 ± 11 | relative cell number ([3]; 100 nM): 46 ± 1.4 | relative cell number ([3]; 1000 nM): 29.9 ± 5.7 | relative cell number ([3]; 10000 nM): 16.4 ± 4.5 | relative cell number ([4]; 10 nM): 50 ± 9.8 | relative cell number ([4]; 100 nM): 31.7 ± 2.4 | relative cell number ([4]; 1000 nM): 22.2 ± 16 | relative cell number ([4]; 10000 nM): 10 ± 4.1 | relative cell number ([5]; 10 nM): 82.6 ± 29 | relative cell number ([5]; 100 nM): 34.4 ± 8.3 | relative cell number ([5]; 1000 nM): 15 ± 6.8 | relative cell number ([5]; 10000 nM): 6.86 ± 0.49

Nc1ccccc1NC(=O)c1ccc(CNC(=O)OCc2cccnc2)cc1 [Entinostat]
relative cell number ([1]; 10 nM): 106 ± 1.9 | relative cell number ([1]; 100 nM): 105 ± 3.4 | relative cell number ([1]; 1000 nM): 64.8 ± 13 | relative cell number ([1]; 10000 nM): 36.8 ± 3.2 | relative cell number ([2]; 10 nM): 90.4 ± 17 | relative cell number ([2]; 100 nM): 115 ± 39 | relative cell number ([2]; 1000 nM): 39.4 ± 5.7 | relative cell number ([2]; 10000 nM): 12.5 ± 5.6 | relative cell number ([3]; 10 nM): 105 ± 2.6 | relative cell number ([3]; 100 nM): 103 ± 22 | relative cell number ([3]; 1000 nM): 50.9 ± 7.8 | relative cell number ([3]; 10000 nM): 19 ± 12 | relative cell number ([4]; 10 nM): 75.3 ± 4.2 | relative cell number ([4]; 100 nM): 103 ± 25 | relative cell number ([4]; 1000 nM): 32.6 ± 24 | relative cell number ([4]; 10000 nM): 36.1 ± 11 | relative cell number ([5]; 10 nM): 76.3 ± 10 | relative cell number ([5]; 100 nM): 102 ± 18 | relative cell number ([5]; 1000 nM): 30.3 ± 5.2 | relative cell number ([5]; 10000 nM): 5.86 ± 2
